Experimental data published in patent US12291516B2, “Substituted 1-amino-1H-imidazole-5-carboxamide as Bruton's tyrosine kinase inhibitors” (Henan Zhiwei Biomedicine Co., Ltd., priority 2019, dated 2025).

biological target: BTK (Homo sapiens (Human), UniProt Q06187); experiment: In house ELISA kinase inhibition assay, BTK; type: biochemical; conditions: footnote b: from in house procedure (ELISA)
Protocol: BTK inhibition Assay and selectivity Assay The assay was conducted either a by a third party (Reaction Biology Corporation, PA, USA) or in house.
b) In House Procedure for BTK, BMX, EGFR and ITK:
Kinase inhibitory activities of compounds were evaluated using the Enzyme-linked immunosorbent assay (ELISA). The kinase enzyme of BTK, BMX, EGFR and ITK were purchased from Carna Bioscience (Kobe, Japan). A total of 10 ng/mL antiphosphotyrosine (PY713) antibody (abcam, Cambridge Science Park, UK) was precoated in 96-well ELISA plates. The kinase enzymes in each reaction well were set to BTK (101.25 ng/mL), BMX (90 ng/mL), EGFR (90 ng/mL) or ITK (120 ng/mL) and incubated with indicated drugs in 1× reaction buffer (50 mmol/L HEPES pH 7.4, 20 mmol/L MgCl2, 0.1 mmol/L MnCl2, 1 mmol/L DTT) containing 20 μmol/L (the final concentration of substrate in ITK reaction was 30 μmol/L) substrate (NH2-[…]-biotin) at 25° C. for 1 h. Then, a total of 3 μmol/L ATP was added and the reaction was continued for 2 h. The products of reaction were transferred into 96-well ELISA plates containing antibody and incubated at 25° C. for 30 min. After incubation, the wells were washed with PBS and then incubated with horseradish peroxidase (HRP)-conjugated streptavidin. The wells were visualized using 3,3′,5,5′-tetramethylbenzidine (TMB), and chromogenic reaction was ended with 2 mol/L H2SO4, the absorbance was read with a multimode plate reader (PerkinElmer, USA) at 450 nm. IC50 values and curve fits were obtained using Prism (GraphPad Software). (Table I-IV)

BTK, sequence (Q06187 whole entry): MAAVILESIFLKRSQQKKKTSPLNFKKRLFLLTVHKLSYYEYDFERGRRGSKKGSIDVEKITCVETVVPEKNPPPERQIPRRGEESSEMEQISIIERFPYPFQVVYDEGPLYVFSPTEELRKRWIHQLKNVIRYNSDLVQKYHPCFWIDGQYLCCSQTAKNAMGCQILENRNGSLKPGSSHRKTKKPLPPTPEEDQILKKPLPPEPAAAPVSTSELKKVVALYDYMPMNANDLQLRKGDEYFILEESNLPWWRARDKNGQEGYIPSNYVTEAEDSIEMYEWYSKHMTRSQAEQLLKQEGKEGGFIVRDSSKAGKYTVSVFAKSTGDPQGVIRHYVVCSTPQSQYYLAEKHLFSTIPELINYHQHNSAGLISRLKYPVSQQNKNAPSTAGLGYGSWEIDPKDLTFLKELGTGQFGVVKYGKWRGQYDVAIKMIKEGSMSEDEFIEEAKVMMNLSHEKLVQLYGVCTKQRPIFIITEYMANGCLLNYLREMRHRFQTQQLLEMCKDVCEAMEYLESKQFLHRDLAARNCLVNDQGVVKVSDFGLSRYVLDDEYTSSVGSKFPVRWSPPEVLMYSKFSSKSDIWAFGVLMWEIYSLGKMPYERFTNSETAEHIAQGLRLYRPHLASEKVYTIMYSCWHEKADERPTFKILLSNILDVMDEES

Structure (SMILES)	IC50 [nM]
C=CC(=O)N1CCC[C@H]1c1nc(-c2ccc(C(=O)Nc3ccc(C)cn3)cc2)c(C(N)=O)n1N [Example 19, (S)-2-(1-acryloylpyrrolidin-2-yl)-1-amino-4-(4-((5-methylpyridin-2-yl)carbamoyl)phenyl)-1H-imidazole-5-carboxamide]	212
C=CC(=O)N1CCC[C@H]1c1nc(-c2ccc(C(=O)Nc3cc(C(C)C)ccn3)cc2)c(C(N)=O)n1N [Example 44, (S)-2-(1-acryloylpyrrolidin-2-yl)-1-amino-4-(4-((4-isopropylpyridin-2-yl)carbamoyl)phenyl)-1H-imidazole-5-carboxamide]	122
C=CC(=O)N1CCC[C@H]1c1nc(-c2ccc(C(=O)Nc3cc(CC)ccn3)cc2)c(C(N)=O)n1N [Example 35, (S)-2-(1-acryloylpyrrolidin-2-yl)-1-amino-4-(4-((4-ethylpyridin-2-yl)carbamoyl)phenyl)-1H-imidazole-5-carboxamide]	33
CC#CC(=O)N1CCCC[C@H]1c1nc(-c2ccc(C(=O)Nc3cc(-c4ccccc4)ccn3)cc2)c(C(N)=O)n1N [Example 66, (S)-1-amino-2-(1-(but-2-ynoyl)piperidin-2-yl)-4-(4-((4-phenylpyridin-2-yl)carbamoyl)phenyl)-1H-imidazole-5-carboxamide]	16.4
CC#CC(=O)N1CCCC[C@H]1c1nc(-c2ccc(C(=O)Nc3cc(C)c(F)cn3)cc2)c(C(N)=O)n1N [Example 108, (S)-1-amino-2-(1-(but-2-ynoyl)piperidin-2-yl)-4-(4-((5-fluoro-4-methylpyridin-2-yl)carbamoyl)phenyl)-1H-imidazole-5-carboxamide]	121
CC#CC(=O)N1CCCC[C@H]1c1nc(-c2ccc(C(=O)Nc3ccc(C)cn3)cc2)c(C(N)=O)n1N [Example 64, (S)-1-amino-2-(1-(but-2-ynoyl)piperidin-2-yl)-4-(4-((5-methylpyridin-2-yl)carbamoyl)phenyl)-1H-imidazole-5-carboxamide]	129
C=CC(=O)N1CCCC[C@H]1c1nc(-c2ccc(C(=O)Nc3cc(-c4ccc(C#N)cc4)ccn3)cc2)c(C(N)=O)n1N [Example 111, (S)-2-(1-acryloylpiperidin-2-yl)-1-amino-4-(4-((4-(4-cyanophenyl)pyridin-2-yl)carbamoyl)phenyl)-1H-imidazole-5-carboxamide]	10.6
CCc1ccnc(NC(=O)c2ccc(-c3nc([C@@H]4CCCCN4C(=O)/C(C#N)=C/C4CC4)n(N)c3C(N)=O)cc2)c1 [Example 78, (S,E)-1-amino-2-(1-(2-cyano-3-cyclopropylacryloyl)piperidin-2-yl)-4-(4-((4-ethylpyridin-2-yl)carbamoyl)phenyl)-1H-imidazole-5-carboxamide]	6560
CC#CC(=O)N1CCC[C@H]1c1nc(-c2ccc(C(=O)Nc3cc(CC)ccn3)cc2)c(C(N)=O)n1N [Example 38, (S)-1-amino-2-(1-(but-2-ynoyl)pyrrolidin-2-yl)-4-(4-((4-ethylpyridin-2-yl)carbamoyl)phenyl)-1H-imidazole-5-carboxamide]	1040
C=CC(=O)N1CCC[C@H]1c1nc(-c2ccc(C(=O)Nc3cc(C(F)(F)F)ccn3)cc2)c(C(N)=O)n1N [Example 42, (S)-2-(1-acryloylpyrrolidin-2-yl)-1-amino-4-(4-((4-(trifluoromethyl)pyridin-2-yl)carbamoyl)phenyl)-1H-imidazole-5-carboxamide]	48
C=C(F)C(=O)N1CCCC[C@H]1c1nc(-c2ccc(C(=O)Nc3cc(OC)ccn3)cc2)c(C(N)=O)n1N [Example 70, (S)-1-amino-2-(1-(2-fluoroacryloyl)piperidin-2-yl)-4-(4-((4-methoxy-pyridin-2-yl)carbamoyl)phenyl)-1H-imidazole-5-carboxamide]	2890
CC#CC(=O)N1CCC[C@H]1c1nc(-c2ccc(C(=O)Nc3ccc(C)cn3)cc2)c(C(N)=O)n1N [Example 27, (S)-1-amino-2-(1-(but-2-ynoyl)pyrrolidin-2-yl)-4-(4-((5-methylpyridin-2-yl)carbamoyl)phenyl)-1H-imidazole-5-carboxamide]	2060
C#CC(=O)N1CCCC[C@H]1c1nc(-c2ccc(C(=O)Nc3cc(OC)ccn3)cc2)c(C(N)=O)n1N [Example 97, (S)-1-amino-4-(4-((4-methoxypyridin-2-yl)carbamoyl)phenyl)-2-(1-propioloylpiperidin-2-yl)-1H-imidazole-5-carboxamide]	9.22
C=CC(=O)N1CCCC[C@H]1c1nc(-c2ccc(C(=O)Nc3cc(OC)ccn3)cc2)c(C(N)=O)n1N [Example 67, (S)-2-(1-acryloylpiperidin-2-yl)-1-amino-4-(4-((4-methoxypyridin-2-yl)carbamoyl)phenyl)-1H-imidazole-5-carboxamide]	9.12
C=CC(=O)N1CCCC[C@H]1c1nc(-c2ccc(C(=O)Nc3cc(C)ccn3)cc2)c(C(N)=O)n1N [Example 53, (S)-2-(1-acryloylpiperidin-2-yl)-1-amino-4-(4-((4-methylpyridin-2-yl)carbamoyl)phenyl)-1H-imidazole-5-carboxamide]	18.1

Second part, the compound after the results:

IC50 [nM]	Structure (SMILES)
58.2	C=CC(=O)N1CCC[C@H]1c1nc(-c2ccc(C(=O)Nc3cc(C)ccn3)cc2)c(C(N)=O)n1NC [Example 45, (S)-2-(1-acryloylpyrrolidin-2-yl)-1-(methylamino)-4-(4-((4-methyl-pyridin-2-yl)carbamoyl)phenyl)-1H-imidazole-5-carboxamide]
5.06	C=CC(=O)N1CCCC[C@H]1c1nc(-c2ccc(C(=O)Nc3cc(-c4ccccc4)ccn3)cc2)c(C(N)=O)n1N [Example 65, (S)-2-(1-acryloylpiperidin-2-yl)-1-amino-4-(4-((4-phenylpyridin-2-yl)carbamoyl)phenyl)-1H-imidazole-5-carboxamide]
14.8	CC#CC(=O)N1CCCC[C@H]1c1nc(-c2ccc(C(=O)Nc3cc(-c4ccc(Cl)cc4)ccn3)cc2)c(C(N)=O)n1N [Example 110, (S)-1-amino-2-(1-(but-2-ynoyl)piperidin-2-yl)-4-(4-((4-(4-chlorophenyl)pyridin-2-yl)carbamoyl)phenyl)-1H-imidazole-5-carboxamide]
85.6	C=CC(=O)N1CC2(CC(c3nc(-c4ccc(C(=O)Nc5cc(CC)ccn5)cc4)c(C(N)=O)n3N)C2)C1 [Example 95, 2-(2-acryloyl-2-azaspiro[3.3]heptan-6-yl)-1-amino-4-(4-((4-ethylpyridin-2-yl)carbamoyl)phenyl)-1H-imidazole-5-carboxamide]
3850	CCc1ccnc(NC(=O)c2ccc(-c3nc([C@@H]4CCCN4C#N)n(N)c3C(N)=O)cc2)c1 [Example 39, (S)-1-amino-2-(1-cyanopyrrolidin-2-yl)-4-(4-((4-ethylpyridin-2-yl)carbamoyl)phenyl)-1H-imidazole-5-carboxamide]
459	CC#CC(=O)N1CCC(Cc2nc(-c3ccc(C(=O)Nc4ccccn4)cc3)c(C(N)=O)n2N)CC1 [Example 104, 1-amino-2-((1-(but-2-ynoyl)piperidin-4-yl)methyl)-4-(4-(pyridin-2-ylcarbamoyl)phenyl)-1H-imidazole-5-carboxamide]
2.78	C#CC(=O)N1CCCC[C@H]1c1nc(-c2ccc(C(=O)Nc3cc(Cl)ccn3)cc2)c(C(N)=O)n1N [Example 99, (S)-1-amino-4-(4-((4-chloropyridin-2-yl)carbamoyl)phenyl)-2-(1-propioloylpiperidin-2-yl)-1H-imidazole-5-carboxamide]
100	CC#CC(=O)N1CCCC[C@H]1c1nc(-c2ccc(C(=O)Nc3ccccn3)cc2)c(C(N)=O)n1N [Example 50, (S)-1-amino-2-(1-(but-2-ynoyl)piperidin-2-yl)-4-(4-(pyridin-2-ylcarbamoyl)phenyl)-1H-imidazole-5-carboxamide]
211	C=CC(=O)N1CCCC[C@H]1c1nc(-c2ccc(C(=O)Nc3cccnn3)cc2)c(C(N)=O)n1N [Example 101, (S)-2-(1-acryloylpiperidin-2-yl)-1-amino-4-(4-(pyridazin-3-ylcarbamoyl)phenyl)-1H-imidazole-5-carboxamide]
1720	CCc1ccnc(NC(=O)c2ccc(-c3nc([C@@H]4CCCCN4C(=O)/C(C#N)=C/C(C)C)n(N)c3C(N)=O)cc2)c1 [Example 79, (S,E)-1-amino-2-(1-(2-cyano-4-methylpent-2-enoyl)piperidin-2-yl)-4-(4-((4-ethylpyridin-2-yl)carbamoyl)phenyl)-1H-imidazole-5-carboxamide]
1670	CC#CC(=O)N1CCC[C@H]1c1nc(-c2ccc(C(=O)Nc3cc(OC)ccn3)cc2)c(C(N)=O)n1N [Example 34, (S)-1-amino-2-(1-(but-2-ynoyl)pyrrolidin-2-yl)-4-(4-((4-methoxy-pyridin-2-yl)carbamoyl)phenyl)-1H-imidazole-5-carboxamide]
1680	CC#CC(=O)N1CCC[C@H]1c1nc(-c2ccc(C(=O)Nc3cc(F)ccn3)cc2)c(C(N)=O)n1N [Example 41, (S)-1-amino-2-(1-(but-2-ynoyl)pyrrolidin-2-yl)-4-(4-((4-fluoropyridin-2-yl)carbamoyl)phenyl)-1H-imidazole-5-carboxamide]
